# Columns and labels:
# [1] = test system: HFD-fed mice; test: RIPA-56 feeding experiment in HFD-fed mice (NASH/steatosis model); assay type: in vivo, C57BL/6J mice
# Description: FIG. 2. RIPA-56 treatment improves liver inflammation and fibrosis in HFD-fed mice. Six-week-old male C57BL/6J mice (n=5 per group) were fed either with normal control diet (NCD) or high-fat diet (HFD) supplemented or not with RIPA-56, according to prophylactic (“Pro”) or curative (“Cur”) designs for 16 weeks, the time necessary for an inflammatory and fibrotic response to develop. Differences between mice were determined by analysis of variance (ANOVA) with Bonferroni's multiple comparison. (A) Schematic representation of the experimental design; (B) Immunoblot analyses of whole liver protein extracts from mice fed NCD (1 to 3), HFD (4 to 6), HFD with RIPA-56 “Pro” (7 to 9), or HFD with RIPA-56 “Cur” (10 to 12) using antibodies against RIPK1, MLKL, RIPK3 and GAPDH as loading control; (C) Serum analysis of ALT; (D) Immuno-histochemical analysis of F4/80 on representative liver tissue sections from mice of each group; (E) Quantitative analysis of F4/80^+ foci using ImageJ software, 10 pictures per mouse were quantified; (F) F4/80, Mcp-1 and Tnf mRNA levels were assessed by RT-qPCR. (G) Representative Sirius Red staining of liver tissue section from mice of each group; (H) Quantification of light polarized Sirius Red pictures, 10 pictures per mouse were analyzed; (I) Collal mRNA levels were assessed by RT-qPCR. All data are expressed as mean±SEM; *p<0.05; **p<0.01; ***p<0.001. Scale bars indicate 50 μm.
# FIG. 5. RIPA-56 treatment improves HFD-induced obesity and steatosis in mice. Six-week-old male C57BL/6J mice (n=5 per group) were fed either NCD or HFD supplemented or not with RIPA-56 for 16 weeks, as depicted in FIG. 2A, to analyze the metabolic status of the mice. (A) Body weight gain in mice of the 4 groups. No significant change in (B) food intake, (C) spontaneous locomotor activity, or (D) respiratory exchange ratio (RER) in mice Of the 4 groups; (E) Whole energy expenditure was evaluated during daylight and night in mice of the 4 groups; (F) Representative H&E staining of liver tissue sections from mice of the 4 groups. Scale bars, 50 μm; (G) Steatosis score of liver tissue sections was evaluated blinded; (H) Intrahepatic triglyceride contents were measured in two liver samples per mouse. Results are shown as mean±SEM; *p<0.05; **p<0.01; ***p<0.001.
# FIG. 6. Fat and lean mass in prophylactically- and curatively-treated mice compared with control mice under HFD. (A) Body fat mass and relative body fat content, and (B) lean mass and relative lean content were evaluated in HFD-fed mice using MRI analysis. All results are shown as mean±SEM; n=5 per group; *p<0.05. Differences between groups were determined by one-way ANOVA with Bonferroni's multiple comparison.
# Six-week-old male C57BL/6J mice (Charles River Laboratories, Ecully, France) were fed a high-fat diet (HFD—45 kcal % fat) or a normal chow diet (NCD) (Ssniff spezialdiäten GmbH, Soest, Germany) for 16 weeks (the time necessary for an inflammatory and fibrotic response to develop).
# RIPA-56 (MedChemExpress, Stockholm, Sweden) was incorporated in diet by Ssniff spezialdiäten GmbH (Soest, Germany) according to a standardized protocol. Ssniff company is an approved manufacturer of laboratory animal diets and has the license to produce medicated feed for laboratory animals in accordance with Directive 2001/82/EC. Before the end of the feeding period, mice were single housed for one week in metabolic cages to measure food intake, respiratory exchange ratio (RER), energy expenditure and spontaneous locomotor activity using a LabMaster indirect calorimetry system (TSE Systems GmbH, Bad Homburg, Germany). Mice were sacrificed under anesthesia and blood was collected via intracardiac puncture procedure. Tissue samples were either directly snap-freezed in liquid nitrogen for molecular analysis or fixed in 4% PFA and embedded in paraffin for histological analysis. […]
# [2] = target: T1, receptor-interacting protein kinase 1 (RIPK1) (Homo sapiens, UniProt Q13546); conditions: Ren et al., J Med Chem 2017; cited from earlier work
# T1 sequence (Q13546 1-671): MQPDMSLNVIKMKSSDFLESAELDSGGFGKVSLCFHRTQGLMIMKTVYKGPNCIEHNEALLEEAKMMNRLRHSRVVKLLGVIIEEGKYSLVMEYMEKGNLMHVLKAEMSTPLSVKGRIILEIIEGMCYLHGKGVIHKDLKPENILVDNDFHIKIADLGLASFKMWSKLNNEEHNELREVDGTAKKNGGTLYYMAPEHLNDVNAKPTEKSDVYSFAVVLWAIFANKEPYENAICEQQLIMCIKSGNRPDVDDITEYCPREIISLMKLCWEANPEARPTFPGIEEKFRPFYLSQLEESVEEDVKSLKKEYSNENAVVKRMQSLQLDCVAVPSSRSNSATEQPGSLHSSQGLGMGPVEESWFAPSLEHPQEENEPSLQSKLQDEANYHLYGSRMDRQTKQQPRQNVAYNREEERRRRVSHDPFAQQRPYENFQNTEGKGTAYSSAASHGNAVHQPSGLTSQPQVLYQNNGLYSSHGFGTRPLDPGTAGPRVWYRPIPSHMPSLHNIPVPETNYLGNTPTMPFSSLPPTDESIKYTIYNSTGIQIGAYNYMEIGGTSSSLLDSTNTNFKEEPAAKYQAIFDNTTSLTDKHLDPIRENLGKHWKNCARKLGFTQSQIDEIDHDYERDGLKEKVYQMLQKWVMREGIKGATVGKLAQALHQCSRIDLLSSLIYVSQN
smiles,measurement,setting,value
"CCC(C)(C)C(=O)N(O)Cc1ccccc1 [RIPA-56, N-Benzyl-N-hydroxy-2,2-dimethylbutanamide]",MLKL and RIPK3 expression in liver (Western blot),"[1]; HFD 16 weeks, 300 mg/kg in diet, both prophylactic and curative treatments",repressed
same,hepatic fat content by blinded histological analyses,[1]; HFD-fed mice,marked decrease
same,"hepatic triglyceride content, reduction",[1]; HFD-fed mice,30-40%
same,"increments in liver mRNA levels of Ccl20, Nlrp3 or Il-1b",[1]; RIPA-56-treated HFD-fed mice,abrogated or reduced
same,expression of RIPK1 in liver,[1]; Western blot and RT-qPCR,not impacted
same,steatosis,[1]; both curative and prophylactic settings,largely reduced
same,increase of serum alanine aminotransferase (ALT),[1]; both prophylactic and curative settings,abolished
same,macrophage infiltration (hepatic F4/80 immunostaining),[1]; both prophylactic and curative treatments,suppressed
same,"liver mRNA levels of F4/80 and Mcp-1, difference HFD vs NCD",[1]; both regimens,disappeared
same,mRNA levels of MLKL and RIPK3 in liver,"[1]; both regimens, RT-qPCR",decreased
same,"body weight gain, fat- or lean-mass vs untreated HFD-fed mice","[1]; curative setting, start after 12 weeks of HFD",did not result in differences
same,Collagen-1a1 (Col1a1) mRNA levels in liver,[1]; curative treatment,reduced
same,TNFα expression in liver,[1]; curative treatment,markedly reduced
same,intensity of histologic features of NASH,[1]; curative treatment,largely attenuates
same,pericellular fibrosis (Sirius red staining),[1]; prophylactic and curative treatments,virtually disappeared
same,MLKL and RIPK3 expression in liver (Western blot),[1]; prophylactic setting,almost complete inhibition
same,"body weight gain, lower than untreated HFD-fed mice",[1]; prophylactic setting,~12%
same,fat and relative fat mass (MRI),[1]; prophylactic setting,significant decrease
same,lean and relative lean body mass (MRI),[1]; prophylactic setting,trend towards increased
same,Collagen-1a1 (Col1a1) mRNA levels in liver,[1]; prophylactic treatment,no longer increased
same,histologic features of NASH,[1]; prophylactic treatment,prevents
same,increase of TNFα expression in liver,[1]; prophylactic treatment,not after RIPA-56 prophylactic treatment
same,energy expenditure (indirect calorimetry),[1]; prophylactic treatment vs curative or no treatment,increased
same,RIPK1 inhibitor profile,[2],selective and metabolically stable inhibitor

# From patent publication US12653796B2, “Compounds for use (in particular RIPA-56) in the prevention and/or treatment of non-alcoholic fatty liver disease” (SORBONNE UNIVERSITE, priority 2019, dated 2026)
